From US12138256B2, “Treatment of cardiopulmonary disorders” (Bayer Aktiengesellschaft, priority 2021, dated 2024)
Values joined by “and” are separate entries in the source; they are usually repeats but may differ in a detail not shown here. Identical values can stand only once.

Legend:
[1] = test system: thromboxane analog U46619 induced PAH in minipigs; assay: Haemodynamics (PAP, BP) in the anesthetized thromboxane challenged PAH minipig after inhaled (nebulized) application (C-2.1); type: in vivo, Göttingen minipig; conditions: 10 μg/kg nominal dose, inhaled, n = 3
Method: Experiments were carried out in anesthetized Göttingen minipigs, anesthetized rats and conscious, telemetrically instrumented dogs. Acute pulmonary hypertension was induced for example by infusion of a thromboxane A2 analogon, by acute hypoxia treatment or hypoxia treatment over a number of weeks and/or by administration of monocrotaline. Test substances were applied via nebulization using the Nebutec® or Aeroneb® Pro nebulizer system, and/or by means of powder and/or solution applicators for experimental intratracheal administration (Liquid MicroSprayer®, Dry Powder Insufflator™, MicroSprayer®, Penn-Century Inc., Wyndmoor, PA, USA) or after solid nebulization inserted into the inspiration arm of the ventilation. Compounds were employed as solids or solutions depending on the molecular structure and the technical possibility depending on the experiment. The haemodynamic signals were recorded and evaluated by means of pressure transducers/amplifiers (Combitransducer B. Braun, Melsungen, Germany or CardioMEMS Inc., Atlanta, GA, USA) and Ponemah® or CardioMems® as data aquisition software. After long-term experiments (for example monocrotaline rat), it is also possible to carry out a histological evaluation.
Healthy Gottingen Minipigs® Ellegaard (Ellegaard, Denmark) of both sexes and having a weight of 2-6 kg were used. The animals were sedated by i.m. administration of about 25 mg/kg ketamine and about 10 mg/kg azaperone. Anaesthesia was initiated by i.v. administration of about 2 mg/kg ketamine and about 0.3 mg/kg midazolam. Maintenance of anaesthesia was by i.v. administration of about 7.5-30 mg/kg/h ketamine and about 1-4 mg/kg/h midazolam (rate of infusion 1-4 ml/kg/h) and about 150 μg/kg/h pancuronium bromide (for example Pancuronium-Actavis). After intubation, the animals were ventilated by the ventilator at a constant respiratory volume (10-12 ml/kg, 35 breaths/min; Avea®, Viasys Healthcare, USA, or Engstrom Carestation, GE Healthcare, Freiburg, Germany) such that an end-tidal CO2 concentration of about 5% was achieved. Ventilation was performed with room air, enriched with about 40% oxygen (normoxia). For the measurement of the haemodynamic parameters such as pulmonary arterial pressure (PAP), blood pressure (BP) and heart rate (HR), catheters were inserted into the carotid artery to measure the blood pressure, and a Swan-Ganz® catheter was introduced in a flow-directed manner via the jugular vein into the pulmonary artery. The haemodynamic signals were recorded and evaluated by means of pressure transducers (Combitransducer, B. Braun, Melsungen, Germany)/amplifiers and Ponemah® as data aquisition software.
After the instruments have been placed into the animals, continuous infusion of a thromboxane A2 analog was initiated to increase the pulmonary arterial pressure. […] D0400, or Cayman Chemical Company, cat. no. 16440), dissolved in physiological saline, were infused to achieve an increase of the mean pulmonary arterial pressure to values of over 25 mmHg. 30 minutes after the start of the infusion, a plateau was reached, and the experiment was started.
The test substances were administered as i.v. infusion or by inhalation. For the preparation of the solution for inhalation, the following procedure was adopted: For an animal having a weight of 4 kg, to prepare the stock solution (300 μg/kg), 1.2 mg of the test compound were weighed out and dissolved in a total volume of 3 ml (1% DMSO, 99% 0.2% strength citric acid solution, 1 N aqueous sodium hydroxide solution to adjust the pH to 8). The solution was then diluted to the concentration employed using 0.2% strength citric acid which had been adjusted to pH 8 beforehand with aqueous sodium hydroxide solution. In each test, 3 ml of the solution of test compound per 4 kg animal were nebulized in the inhalation arm of the respiratory circuit using the Aeroneb® Pro nebulizer system. The mean nebulization time was about 7 min from the start of the nebulization.

[2] = test system: anesthetized PAH minipigs; assay: PAH minipig model: intratracheal application of dry powder formulations and different hydrates (PennCentury insufflator); type: in vivo, Göttingen minipig; conditions: for BP (mean) / PAP(mean) / BP % changes vs. prevalues / PAP % changes vs. prevalues: 375 μg/kg i.t.; for BP (mean) / PAP(mean): absolute values; for BP % changes vs. prevalues / PAP % changes vs. prevalues: each animal
Source text: After characterization of the effects of comparative example 11 after nebulization of compound solutions, in a further step the effects of crystalline forms of comparative example 11, e.g. sesquihydrate, e.g. example 6e on PAP and BP after inhaled application of different dry powder lactose formulations (table C2.1.8) were studied in anesthetized PAH minipigs.
As reference pure Lactose vehicle was applied in the beginning of each experiment.

## CC#CCC(C)[C@H](O)/C=C/[C@@H]1[C@H]2C/C(=C/CCCC(=O)O)C[C@H]2C[C@H]1O (stereo partly shown) [Ventavis ®]
[1]; time 0 min
  PAP % changes vs prevalue, mean: 0%
[1]; time 10 min
  PAP % changes vs prevalue, mean: −30.3%
[1]; time 20 min
  PAP % changes vs prevalue, mean: −20.7%
[1]; time 30 min
  PAP % changes vs prevalue, mean: −6.9%
[1]; time 40 min
  PAP % changes vs prevalue, mean: 1.7%
[1]; time 50 min
  PAP % changes vs prevalue, mean: 4.9%

## O.O=C(O)c1ccc(CCN(CCc2ccccc2OCc2ccc(-c3ccc(C(F)(F)F)cc3)cc2Cl)[C@H]2CCCc3nc(C(=O)O)ccc32)cc1.O=C(O)c1ccc(CCN(CCc2ccccc2OCc2ccc(-c3ccc(C(F)(F)F)cc3)cc2Cl)[C@H]2CCCc3nc(C(=O)O)ccc32)cc1 [example 6a, (5S)-{[2-(4-Carboxyphenyl)ethyl][2-(2-{[3-chloro-4′-(trifluoromethyl)biphenyl-4-yl]methoxy}phenyl)-ethyl]amino}-5,6,7,8-tetrahydroquinoline-2-carboxylic acid semihydrate]
[2]; 1.5 mg/4 kg (=375 μg/kg) intratracheally, micronized
  efficacy with regard to PAP reduction as well as systemic BP reduction: comparable efficacy
[2]; time 0
  BP (mean): 101 mmHg and 85 mmHg
  PAP(mean): 39.6 mmHg and 40.8 mmHg and 38.5 mmHg
[2]; time 10
  BP (mean): 103 mmHg and 83 mmHg and 79 mmHg
  PAP(mean): 40.2 mmHg and 41.1 mmHg
[2]; time 20
  BP (mean): 101 mmHg and 83 mmHg and 84 mmHg
  PAP(mean): 40.4 mmHg and 41.3 mmHg
[2]; time 30
  BP (mean): 100 mmHg and 81 mmHg and 88 mmHg
  PAP(mean): 40.2 mmHg and 41.3 mmHg
[2]; time 40
  BP (mean): 98 mmHg and 81 mmHg and 90 mmHg
  PAP(mean): 40.4 mmHg and 41.8 mmHg and 41.0 mmHg
[2]; time 50
  BP (mean): 99 mmHg and 78 mmHg and 89 mmHg
  PAP(mean): 40.7 mmHg and 41.7 mmHg and 40.9 mmHg
  BP % changes vs. prevalues: 99.6% and 98.4% and 100.6%
  PAP % changes vs. prevalues: 99.3% and 98.7% and 98.9%
[2]; time 60
  BP (mean): 100 mmHg and 79 mmHg and 86 mmHg
  PAP(mean): 41.2 mmHg and 42.0 mmHg and 40.9 mmHg
  BP % changes vs. prevalues: 100.6% and 99.7% and 97.2%
  PAP % changes vs. prevalues: 100.7% and 99.4% and 99.2%
[2]; time 70
  BP (mean): 102 mmHg and 78 mmHg and 87 mmHg
  PAP(mean): 38.8 mmHg and 40.6 mmHg and 40.1 mmHg
  BP % changes vs. prevalues: 102.6% and 98.4% (2×)
  PAP % changes vs. prevalues: 94.7% and 96.1% and 97.0%
[2]; time 80
  BP (mean): 102 mmHg and 79 mmHg and 90 mmHg
  PAP(mean): 34.1 mmHg and 39.9 mmHg and 37.7 mmHg
  BP % changes vs. prevalues: 102.6% and 99.7% and 101.8%
  PAP % changes vs. prevalues: 83.4% and 94.5% and 91.2%
[2]; time 90
  BP (mean): 101 mmHg and 81 mmHg and 92 mmHg
  PAP(mean): 30.1 mmHg and 37.7 mmHg and 36.6 mmHg
  BP % changes vs. prevalues: 101.6% and 102.2% and 104.0%
  PAP % changes vs. prevalues: 73.4% and 89.2% and 88.7%
[2]; time 100
  BP (mean): 100 mmHg and 80 mmHg and 95 mmHg
  PAP(mean): 28.3 mmHg and 35.9 mmHg and 35.0 mmHg
  BP % changes vs. prevalues: 100.6% and 101.0% and 107.4%
  PAP % changes vs. prevalues: 69.0% and 85.0% and 84.7%
[2]; time 110
  BP (mean): 99 mmHg and 79 mmHg
  PAP(mean): 27.2 mmHg and 34.8 mmHg and 34.0 mmHg
  BP % changes vs. prevalues: 99.6% and 99.7% and 111.9%
  PAP % changes vs. prevalues: 66.5% and 82.4% and 82.1%
[2]; time 120
  BP (mean): 99 mmHg and 79 mmHg and 96 mmHg
  PAP(mean): 26.4 mmHg and 34.1 mmHg and 32.9 mmHg
  BP % changes vs. prevalues: 99.6% and 99.7% and 108.6%
  PAP % changes vs. prevalues: 64.4% and 80.8% and 79.7%
[2]; time 130
  BP (mean): 98 mmHg and 81 mmHg and 97 mmHg
  PAP(mean): 25.7 mmHg and 33.7 mmHg and 31.7 mmHg
  BP % changes vs. prevalues: 98.6% and 102.2% and 109.7%
  PAP % changes vs. prevalues: 62.8% and 79.9% and 76.7%
[2]; time 140
  BP (mean): 99 mmHg and 82 mmHg and 98 mmHg
  PAP(mean): 25.3 mmHg and 33.2 mmHg and 31.3 mmHg
  BP % changes vs. prevalues: 99.6% and 103.5% and 110.8%
  PAP % changes vs. prevalues: 61.8% and 78.7% and 75.7%
[2]; time 150
  BP (mean): 97 mmHg and 82 mmHg
  PAP(mean): 25.0 mmHg and 32.9 mmHg and 30.7 mmHg
  BP % changes vs. prevalues: 97.6% and 103.5% and 109.7%
  PAP % changes vs. prevalues: 60.9% and 78.0% and 74.3%
[2]; time 160
  PAP(mean): 24.5 mmHg and 32.5 mmHg and 30.2 mmHg
  BP % changes vs. prevalues: 96.6% and 102.2% and 109.7%
  PAP % changes vs. prevalues: 59.9% and 77.1% and 73.1%
[2]; time 170
  BP % changes vs. prevalues: 95.6% and 99.7% and 107.4%
  PAP % changes vs. prevalues: 58.6% and 76.7% and 72.3%
[2]; time 180
  BP % changes vs. prevalues: 94.6% and 99.7% and 106.3%
  PAP % changes vs. prevalues: 58.0% and 75.4% and 71.8%
[2]; time 190
  BP % changes vs. prevalues: 94.6% and 108.5% and 105.2%
  PAP % changes vs. prevalues: 59.5% and 78.4% and 70.7%
[2]; time 200
  BP % changes vs. prevalues: 92.6% and 107.3% and 104.0%
  PAP % changes vs. prevalues: 60.5% and 76.8% and 71.1%
[2]; time 210
  BP % changes vs. prevalues: 90.6% and 102.2% and 102.9%
  PAP % changes vs. prevalues: 60.6%
[2]; time −10
  BP (mean): 99 mmHg and 85 mmHg and 86 mmHg
  PAP(mean): 38.7 mmHg and 40.6 mmHg
